Measured values: patent US20070197510A1, “Nitriles and medicinal compositions containing the same as the active ingredient” (priority 2004, published 2007)

Biological target: T1, cathepsin K (Homo sapiens, UniProt P43235)
T1 sequence (P43235 115-329): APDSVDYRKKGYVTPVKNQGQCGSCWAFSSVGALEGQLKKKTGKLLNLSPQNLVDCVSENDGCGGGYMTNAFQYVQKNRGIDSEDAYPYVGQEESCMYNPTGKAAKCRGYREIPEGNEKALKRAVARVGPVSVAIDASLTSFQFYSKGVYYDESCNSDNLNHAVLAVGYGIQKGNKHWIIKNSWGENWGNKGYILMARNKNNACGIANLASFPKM
Experiment: Measurement of cathepsin K inhibitory activity
Assay type: biochemical
Settings: fluorogenic substrate Boc-Ala-Gly-Pro-Arg-MCA, pH 5.5, 37° C.
Experimental: (i) Measurement of Cathepsin k Inhibitory Activity
65 μL of Cathepsin K Enzyme Reaction Buffer (50 Mmol/L of 2-(N-morpholino)ethanesulfonate, 2 mmol/L of ethylenediaminetetraacetate (EDTA) and 4 mmol/L of dithiothreitol (DTT) were mixed to adjust to pH 5.5), 5 μL of cysteine protease inhibitor solution of several concentrations, 20 μL of synthesized substrate (t-butyloxycarbonyl-L-alanyl-glycyl-L-prolyl-L-arginine-[…]) solution of several concentrations and 10 μL of cathepsin K enzyme solution were mixed and the increase of fluorescence intensity when reacted at 37° C. was measured (λex (excitation wavelength)=355 nm, λem (fluorescence wavelength)=460 nm). As to the substrate and the compound of the present invention, enzyme reactions were carried […]

IC50 [nM] | SMILES
2.9 | CC(C)(C)Cn1c2nc(C#N)ncc2c(=O)n1Cc1cccs1 [compound 8(2B), 1-(2,2-dimethylpropyl)-3-oxo-2-(2-thienylmethyl)-2,3-dihydro-1H-pyrazolo[3,4-d]pyrimidine-6-carbonitrile]
12 | CN1CCN(C(=O)CN2Cc3cnc(C#N)nc3N(CC(C)(C)C)C2=O)CC1 [Example 55(14), 8-(2,2-dimethylpropyl)-6-[2-(4-methyl-1-piperazinyl)-2-oxoethyl]-7-oxo-5,6,7,8-tetrahydropyrimido[4,5-d]pyrimidine-2-carbonitrile]
